In patent US11767310B2, “Nicotinamide RIPK1 inhibitors” (AbbVie Inc., priority 2021, dated 2023):
Where two headings read alike, the source gives them in different places.

Columns and labels:
Experiment in all cases: Kinase binding screen
ERBB4 = ERBB4 (Homo sapiens (Human), UniProt Q15303); conditions: read-out: Percent Control at 100 nM Compound Concentration
FLT3(ITD) = system: FLT3(ITD); design: species or system human
ERN1 = ERN1 (Homo sapiens (Human), UniProt O75460); conditions: read-out: Percent Control at 100 nM Compound Concentration
[1] = target: ABL1(F317I)-nonphosphorylated (Homo sapiens (Human), UniProt P00519, F317I); conditions: read-out: Percent Control at 100 nM Compound Concentration
PAK7 = PAK7 (Homo sapiens (Human), UniProt Q9P286); conditions: read-out: Percent Control at 100 nM Compound Concentration
[2] = target: ABL1(Q252H)-nonphosphorylated (Homo sapiens (Human), UniProt P00519, Q252H); conditions: read-out: Percent Control at 100 nM Compound Concentration
PIK4CB = PIK4CB (Homo sapiens (Human), UniProt Q9UBF8); conditions: read-out: Percent Control at 100 nM Compound Concentration
MKK7 = MKK7 (Homo sapiens (Human), UniProt O14733); conditions: read-out: Percent Control at 100 nM Compound Concentration
PIK3C2G = PIK3C2G (Homo sapiens (Human), UniProt O75747); conditions: read-out: Percent Control at 100 nM Compound Concentration
CASK = CASK (Homo sapiens (Human), UniProt O14936); conditions: read-out: Percent Control at 100 nM Compound Concentration
DAPK3 = DAPK3 (Homo sapiens (Human), UniProt O43293); conditions: read-out: Percent Control at 100 nM Compound Concentration
HASPIN = HASPIN (Homo sapiens (Human), UniProt Q8TF76); conditions: read-out: Percent Control at 100 nM Compound Concentration
PIK3CA(E545A) = PIK3CA(E545A) (Homo sapiens (Human), UniProt P42336, E545A); conditions: read-out: Percent Control at 100 nM Compound Concentration
STK35 = STK35 (Homo sapiens (Human), UniProt Q8TDR2); conditions: read-out: Percent Control at 100 nM Compound Concentration
CSNK2A1 = CSNK2A1 (Homo sapiens (Human), UniProt P68400); conditions: read-out: Percent Control at 100 nM Compound Concentration
FLT3(R834Q) = FLT3(R834Q) (Homo sapiens (Human), UniProt P36888, R834Q); conditions: read-out: Percent Control at 100 nM Compound Concentration
RET(V804M) = RET(V804M) (Homo sapiens (Human), UniProt P07949, V804M); conditions: read-out: Percent Control at 100 nM Compound Concentration
PAK4 = PAK4 (Homo sapiens (Human), UniProt O96013); conditions: read-out: Percent Control at 100 nM Compound Concentration
MEK3 = MEK3 (Homo sapiens (Human), UniProt P46734); conditions: read-out: Percent Control at 100 nM Compound Concentration
FRK = FRK (Homo sapiens (Human), UniProt P42685); conditions: read-out: Percent Control at 100 nM Compound Concentration
CDK9 = CDK9 (Homo sapiens (Human), UniProt P50750); conditions: read-out: Percent Control at 100 nM Compound Concentration
HIPK1 = HIPK1 (Homo sapiens (Human), UniProt Q86Z02); conditions: read-out: Percent Control at 100 nM Compound Concentration
PIK3CA(H1047Y) = PIK3CA(H1047Y) (Homo sapiens (Human), UniProt P42336, H1047Y); conditions: read-out: Percent Control at 100 nM Compound Concentration
LIMK2 = LIMK2 (Homo sapiens (Human), UniProt P53671); conditions: read-out: Percent Control at 100 nM Compound Concentration
[3] = target: ABL1(M351T)-phosphorylated (Homo sapiens (Human), UniProt P00519, M351T); conditions: read-out: Percent Control at 100 nM Compound Concentration
IKK-beta = IKK-beta (Homo sapiens (Human), UniProt O14920); conditions: read-out: Percent Control at 100 nM Compound Concentration
S6K1 = S6K1 (Homo sapiens (Human), UniProt P23443); conditions: read-out: Percent Control at 100 nM Compound Concentration
ERK4 = ERK4 (Homo sapiens (Human), UniProt P31152); conditions: read-out: Percent Control at 100 nM Compound Concentration
PIK3CG = PIK3CG (Homo sapiens (Human), UniProt P48736); conditions: read-out: Percent Control at 100 nM Compound Concentration
PIK3CG, sequence (P48736 whole entry): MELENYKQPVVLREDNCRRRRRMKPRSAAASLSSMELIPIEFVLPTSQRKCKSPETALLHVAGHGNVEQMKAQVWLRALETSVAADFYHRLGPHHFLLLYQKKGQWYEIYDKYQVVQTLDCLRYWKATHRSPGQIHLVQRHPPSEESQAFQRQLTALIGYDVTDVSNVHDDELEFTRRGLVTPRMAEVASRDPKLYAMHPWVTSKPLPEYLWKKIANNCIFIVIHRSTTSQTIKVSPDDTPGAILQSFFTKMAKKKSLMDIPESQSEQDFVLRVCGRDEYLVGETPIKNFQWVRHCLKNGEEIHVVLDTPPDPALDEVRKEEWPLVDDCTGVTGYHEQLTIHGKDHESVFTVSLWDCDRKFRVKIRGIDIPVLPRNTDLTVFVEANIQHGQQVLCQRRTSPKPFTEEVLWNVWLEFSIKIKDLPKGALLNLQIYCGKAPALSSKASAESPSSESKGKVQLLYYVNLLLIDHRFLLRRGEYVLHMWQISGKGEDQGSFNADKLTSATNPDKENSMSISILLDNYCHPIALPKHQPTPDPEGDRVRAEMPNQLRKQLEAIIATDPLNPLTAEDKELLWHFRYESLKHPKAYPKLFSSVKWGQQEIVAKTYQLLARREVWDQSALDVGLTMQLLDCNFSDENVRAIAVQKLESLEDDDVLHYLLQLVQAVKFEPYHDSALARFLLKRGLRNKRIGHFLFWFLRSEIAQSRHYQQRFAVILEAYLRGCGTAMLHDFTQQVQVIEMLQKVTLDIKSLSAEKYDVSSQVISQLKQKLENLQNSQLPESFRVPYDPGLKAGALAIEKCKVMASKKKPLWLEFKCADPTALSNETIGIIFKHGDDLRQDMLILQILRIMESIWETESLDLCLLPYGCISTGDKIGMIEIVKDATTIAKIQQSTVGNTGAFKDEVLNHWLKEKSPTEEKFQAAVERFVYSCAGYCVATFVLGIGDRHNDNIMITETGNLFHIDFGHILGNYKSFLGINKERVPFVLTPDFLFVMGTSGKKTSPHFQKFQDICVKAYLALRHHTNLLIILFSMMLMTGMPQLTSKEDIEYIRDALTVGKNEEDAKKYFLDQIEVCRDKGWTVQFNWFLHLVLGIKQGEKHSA

FRK, sequence (P42685 whole entry): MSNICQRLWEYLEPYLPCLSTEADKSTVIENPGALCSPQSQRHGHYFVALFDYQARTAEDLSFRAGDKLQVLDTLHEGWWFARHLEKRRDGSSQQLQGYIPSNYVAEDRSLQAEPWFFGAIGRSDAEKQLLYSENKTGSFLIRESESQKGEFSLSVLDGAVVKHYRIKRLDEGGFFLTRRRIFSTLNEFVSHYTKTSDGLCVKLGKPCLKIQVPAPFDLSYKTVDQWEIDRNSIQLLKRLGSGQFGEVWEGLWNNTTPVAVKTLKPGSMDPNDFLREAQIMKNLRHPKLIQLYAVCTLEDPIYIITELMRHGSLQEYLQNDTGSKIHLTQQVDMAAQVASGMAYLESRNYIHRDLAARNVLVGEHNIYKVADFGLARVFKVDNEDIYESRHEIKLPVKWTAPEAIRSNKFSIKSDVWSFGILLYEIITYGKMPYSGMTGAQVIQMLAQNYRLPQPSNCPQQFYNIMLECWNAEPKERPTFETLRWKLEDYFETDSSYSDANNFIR
STK35, sequence (Q8TDR2 whole entry): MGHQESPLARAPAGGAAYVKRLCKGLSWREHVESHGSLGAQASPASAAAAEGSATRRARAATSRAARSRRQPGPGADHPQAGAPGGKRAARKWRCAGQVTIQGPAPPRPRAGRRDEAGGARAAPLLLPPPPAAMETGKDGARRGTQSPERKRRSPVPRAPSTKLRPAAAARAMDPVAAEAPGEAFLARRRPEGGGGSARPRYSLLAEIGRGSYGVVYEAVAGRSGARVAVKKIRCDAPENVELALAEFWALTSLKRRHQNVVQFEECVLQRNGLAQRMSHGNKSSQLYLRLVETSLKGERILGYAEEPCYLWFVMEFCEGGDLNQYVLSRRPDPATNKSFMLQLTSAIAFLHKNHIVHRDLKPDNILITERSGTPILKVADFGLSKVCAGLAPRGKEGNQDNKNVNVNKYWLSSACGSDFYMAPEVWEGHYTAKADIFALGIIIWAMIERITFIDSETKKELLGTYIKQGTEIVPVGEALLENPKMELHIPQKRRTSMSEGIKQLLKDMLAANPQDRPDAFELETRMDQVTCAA
IKK-beta, sequence (O14920 whole entry): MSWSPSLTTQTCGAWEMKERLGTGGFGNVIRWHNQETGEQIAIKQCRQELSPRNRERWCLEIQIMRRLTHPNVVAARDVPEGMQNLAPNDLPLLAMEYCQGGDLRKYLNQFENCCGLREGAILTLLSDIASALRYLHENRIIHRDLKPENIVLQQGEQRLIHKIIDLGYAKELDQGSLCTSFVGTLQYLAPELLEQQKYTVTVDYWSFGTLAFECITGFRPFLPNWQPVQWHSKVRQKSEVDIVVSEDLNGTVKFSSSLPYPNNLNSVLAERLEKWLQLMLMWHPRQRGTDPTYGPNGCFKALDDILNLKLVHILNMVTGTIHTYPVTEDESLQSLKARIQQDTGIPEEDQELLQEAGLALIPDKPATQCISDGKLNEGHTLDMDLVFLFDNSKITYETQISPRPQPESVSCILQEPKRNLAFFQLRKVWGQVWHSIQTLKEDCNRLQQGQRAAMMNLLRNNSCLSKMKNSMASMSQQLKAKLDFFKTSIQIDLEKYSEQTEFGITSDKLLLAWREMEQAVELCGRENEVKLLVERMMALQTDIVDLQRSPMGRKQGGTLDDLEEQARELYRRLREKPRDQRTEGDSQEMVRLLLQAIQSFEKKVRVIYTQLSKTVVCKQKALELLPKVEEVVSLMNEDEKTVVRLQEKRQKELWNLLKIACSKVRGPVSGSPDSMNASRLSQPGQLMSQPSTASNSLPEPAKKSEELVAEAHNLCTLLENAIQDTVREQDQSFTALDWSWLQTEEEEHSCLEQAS
MEK3, sequence (P46734 whole entry): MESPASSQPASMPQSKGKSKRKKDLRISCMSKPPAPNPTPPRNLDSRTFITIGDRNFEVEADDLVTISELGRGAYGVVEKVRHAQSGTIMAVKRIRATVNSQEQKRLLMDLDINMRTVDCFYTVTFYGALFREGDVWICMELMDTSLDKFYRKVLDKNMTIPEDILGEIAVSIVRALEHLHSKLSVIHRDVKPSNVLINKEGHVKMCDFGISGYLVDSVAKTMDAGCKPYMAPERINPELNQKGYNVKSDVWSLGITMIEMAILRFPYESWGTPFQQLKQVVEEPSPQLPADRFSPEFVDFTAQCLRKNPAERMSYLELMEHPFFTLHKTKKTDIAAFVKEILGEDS
CDK9, sequence (P50750 whole entry): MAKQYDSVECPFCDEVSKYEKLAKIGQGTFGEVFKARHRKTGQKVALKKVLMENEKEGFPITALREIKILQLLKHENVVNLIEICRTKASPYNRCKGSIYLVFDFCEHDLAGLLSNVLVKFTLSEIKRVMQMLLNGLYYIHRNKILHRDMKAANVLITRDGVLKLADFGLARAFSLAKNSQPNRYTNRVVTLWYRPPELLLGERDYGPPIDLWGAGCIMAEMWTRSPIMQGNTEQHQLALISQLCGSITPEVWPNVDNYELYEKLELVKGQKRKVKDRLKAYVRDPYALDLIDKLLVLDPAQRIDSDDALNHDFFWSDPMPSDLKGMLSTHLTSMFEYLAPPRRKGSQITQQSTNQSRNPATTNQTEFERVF
LIMK2, sequence (P53671 whole entry): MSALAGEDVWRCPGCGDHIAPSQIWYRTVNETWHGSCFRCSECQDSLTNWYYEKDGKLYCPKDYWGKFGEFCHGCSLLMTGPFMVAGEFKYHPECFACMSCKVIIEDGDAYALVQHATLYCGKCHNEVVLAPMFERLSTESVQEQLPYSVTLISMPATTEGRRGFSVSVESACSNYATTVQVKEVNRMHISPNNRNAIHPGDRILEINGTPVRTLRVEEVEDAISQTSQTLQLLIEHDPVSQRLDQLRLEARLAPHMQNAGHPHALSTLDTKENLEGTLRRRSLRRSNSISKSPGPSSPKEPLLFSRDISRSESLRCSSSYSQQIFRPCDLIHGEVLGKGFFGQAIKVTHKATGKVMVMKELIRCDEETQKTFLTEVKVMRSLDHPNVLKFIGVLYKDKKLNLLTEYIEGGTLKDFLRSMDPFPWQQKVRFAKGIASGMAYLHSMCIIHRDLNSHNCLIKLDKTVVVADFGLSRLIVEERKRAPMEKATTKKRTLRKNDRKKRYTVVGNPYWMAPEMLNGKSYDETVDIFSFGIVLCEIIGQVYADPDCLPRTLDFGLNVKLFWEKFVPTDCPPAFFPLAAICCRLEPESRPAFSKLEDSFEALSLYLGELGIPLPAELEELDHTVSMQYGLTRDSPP
MKK7, sequence (O14733 whole entry): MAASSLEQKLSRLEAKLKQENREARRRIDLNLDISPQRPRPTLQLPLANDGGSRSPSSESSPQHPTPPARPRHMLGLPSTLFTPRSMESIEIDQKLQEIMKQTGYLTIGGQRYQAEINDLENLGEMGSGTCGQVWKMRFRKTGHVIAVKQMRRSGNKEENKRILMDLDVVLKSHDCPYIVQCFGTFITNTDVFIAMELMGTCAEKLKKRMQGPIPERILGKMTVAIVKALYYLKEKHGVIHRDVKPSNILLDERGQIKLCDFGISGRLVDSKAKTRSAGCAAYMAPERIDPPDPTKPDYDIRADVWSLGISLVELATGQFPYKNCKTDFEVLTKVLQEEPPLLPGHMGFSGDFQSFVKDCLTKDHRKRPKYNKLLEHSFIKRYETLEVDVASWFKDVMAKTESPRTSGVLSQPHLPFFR

For CN(C[C@@H](O)Cc1ccccc1)C(=O)c1cncc(C#Cc2cnn(C(F)F)c2)c1 [Example 2, (S)-5-((1-(difluoromethyl)-1H-pyrazol-4-yl)ethynyl)-N-(2-hydroxy-3-phenylpropyl)-N-methylnicotinamide], the remaining activity at 0.1 µM (ERBB4; ERBB4) was 94%, the “Percent Control at 100 nM Compound Concentration” value (FLT3(ITD)) was 100% and the remaining activity at 0.1 µM (ERN1; ERN1) was 100%. The remaining activity at 0.1 µM ([1]; ABL1(F317I)-nonphosphorylated) was 100%, the remaining activity at 0.1 µM (PAK7; PAK7) was 100% and the remaining activity at 0.1 µM ([2]; ABL1(Q252H)-nonphosphorylated) was 92%. It also gave a remaining activity at 0.1 µM (PIK4CB; PIK4CB) of 100%, a remaining activity at 0.1 µM (MKK7; MKK7) of 98% and a remaining activity at 0.1 µM (PIK3C2G; PIK3C2G) of 85%. The remaining activity at 0.1 µM (CASK; CASK) was 99%, the remaining activity at 0.1 µM (DAPK3; DAPK3) was 100% and the remaining activity at 0.1 µM (HASPIN; HASPIN) was 86%. It also gave a remaining activity at 0.1 µM (PIK3CA(E545A); PIK3CA(E545A)) of 89%, a remaining activity at 0.1 µM (STK35; STK35) of 99% and a remaining activity at 0.1 µM (CSNK2A1; CSNK2A1) of 98%. The remaining activity at 0.1 µM (FLT3(R834Q); FLT3(R834Q)) was 100%, the remaining activity at 0.1 µM (RET(V804M); RET(V804M)) was 100% and the remaining activity at 0.1 µM (PAK4; PAK4) was 98%. It also gave a remaining activity at 0.1 µM (MEK3; MEK3) of 94%, a remaining activity at 0.1 µM (FRK; FRK) of 100% and a remaining activity at 0.1 µM (CDK9; CDK9) of 100%. For the same compound, the remaining activity at 0.1 µM (HIPK1; HIPK1) was 72%, the remaining activity at 0.1 µM (PIK3CA(H1047Y); PIK3CA(H1047Y)) was 71% and the remaining activity at 0.1 µM (LIMK2; LIMK2) was 95%. For the same compound, the remaining activity at 0.1 µM ([3]; ABL1(M351T)-phosphorylated) was 86%, the remaining activity at 0.1 µM (IKK-beta; IKK-beta) was 96% and the remaining activity at 0.1 µM (S6K1; S6K1) was 95%. For the same compound, the remaining activity at 0.1 µM (ERK4; ERK4) was 100% and the remaining activity at 0.1 µM (PIK3CG; PIK3CG) was 100%.

In the case of CN(C[C@H](Cc1ccccc1)OP(=O)(O)O)C(=O)c1cncc(C#Cc2cnn(C(F)F)c2)c1 [Example 19, (S)-1-(5-((1-(difluoromethyl)-1H-pyrazol-4-yl)ethynyl)-N-methylnicotinamido)-3-phenylpropan-2-yl dihydrogen phosphate], the remaining activity at 0.1 µM (ERBB4) is reported as 93%, the “Percent Control at 100 nM Compound Concentration” value (FLT3(ITD)) is reported as 100% and the remaining activity at 0.1 µM (ERN1) is reported as 93%. The remaining activity at 0.1 µM [1] was 100%, the remaining activity at 0.1 µM (PAK7) was 100% and the remaining activity at 0.1 µM [2] was 100%. For the same compound, the remaining activity at 0.1 µM (PIK4CB) was 98%, the remaining activity at 0.1 µM (MKK7) was 96% and the remaining activity at 0.1 µM (PIK3C2G) was 78%. It also gave a remaining activity at 0.1 µM (CASK) of 94%, a remaining activity at 0.1 µM (DAPK3) of 97% and a remaining activity at 0.1 µM (HASPIN) of 83%. It also gave a remaining activity at 0.1 µM (PIK3CA(E545A)) of 94%, a remaining activity at 0.1 µM (STK35) of 100% and a remaining activity at 0.1 µM (CSNK2A1) of 98%. The remaining activity at 0.1 µM (FLT3(R834Q)) was 100%, the remaining activity at 0.1 µM (RET(V804M)) was 100% and the remaining activity at 0.1 µM (PAK4) was 98%. The remaining activity at 0.1 µM (MEK3) was 79%, the remaining activity at 0.1 µM (FRK) was 100% and the remaining activity at 0.1 µM (CDK9) was 100%. For the same compound, the remaining activity at 0.1 µM (HIPK1) was 82%, the remaining activity at 0.1 µM (PIK3CA(H1047Y)) was 72% and the remaining activity at 0.1 µM (LIMK2) was 93%. It also gave a remaining activity at 0.1 µM [3] of 97%, a remaining activity at 0.1 µM (IKK-beta) of 96% and a remaining activity at 0.1 µM (S6K1) of 95%. For the same compound, the remaining activity at 0.1 µM (ERK4) was 100% and the remaining activity at 0.1 µM (PIK3CG) was 100%.
